Test results as given in patent US9686985B2, “Fungicide N-cycloalkyl-N-bicyclicmethylene-carboxamide derivatives” (BAYER INTELLECTUAL PROPERTY GMBH, priority 2012, dated 2017).

What was measured:
Uromyces appendiculatus = experiment: Example G: in vivo preventive test on Uromyces appendiculatus (bean rust); settings: table G1; 500 ppm; bean plants; grading 11 days after contamination
Summary of the method: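 Bean plants ("Saxa") at the 2-leaf stage, grown at 24° C., sprayed preventively with active ingredient, then inoculated 24 h later with U. appendiculatus spores (150 000 spores per mL). Incubated 24 h at 20° C./100% RH, then 10 days at 20° C./70-80% RH; % efficacy graded 11 days after contamination versus solvent-treated controls.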

Pyrenophora teres = experiment: Example M: in vivo preventive test on Pyrenophora teres (barley); settings: table M, 500 ppm, evaluated 8 days after inoculation
Protocol: Example M: In Vivo Preventive Test on Pyrenophora teres (Barley) [table] To produce a suitable preparation of active compound, 1 part by weight of active compound or active compound combination is mixed with the stated amounts of solvent and emulsifier, and the concentrate is diluted with water to the desired concentration. To test for preventive activity, young plants are sprayed with the preparation of active compound or active compound combination at the stated rate of application. After the spray coating has been dried, the plants are sprayed with a spore suspension of Pyrenophora teres. The plants remain for 48 hours in an incubation cabinet at approximately 20° C. and a relative atmospheric humidity of approximately 100%. The plants are placed in the greenhouse at a temperature of approximately 20° C. and a relative atmospheric humidity of approximately 80%.

| Structure (SMILES) | Efficacy (Uromyces appendiculatus) [%] | Efficacy (Pyrenophora teres) [%] |
| --- | --- | --- |
| CC(C1CCCc2ccccc21)N(C(=O)c1c(C(F)F)nn(C)c1F)C1CC1 (stereo not shown) [I.23] | 100 | 100 |
| Cn1nc(C(F)F)c(C(=O)N(CC2CC(C)(C)Oc3ccccc32)C2CC2)c1F (stereo not shown) [I.33] | 100 | 100 |
